Experimental data: patent US6281250A, “Retinyl ethers, derivatives and analogues and inhibition of breast carcinogenesis” (Southern Research Institute, priority 1999, dated 2001)
Entries after “also recorded” stand apart in the source; their conditions may differ.

What was measured:
[1] = 24 hours or similar, protected from light and air; Shealy et al, 1997; cited from earlier work
[2] = target: T1, cellular retinol-binding protein (CRBP) (Rattus norvegicus, UniProt P02696); assay: Binding to cellular retinol-binding protein (CRBP): inhibition of [3H]retinol binding, sucrose density-gradient sedimentation; details: for Percent Inhibition of [3H] Retinol Binding (CRBP Assay): 150-fold molar excess of unlabelled test retinoid, rat testes cytosol
T1 construct: portions of rat testes cytosol (1 mg protein) were incubated; from tissue; host or cells: rat testes cytosol
T1 sequence (P02696 1-135): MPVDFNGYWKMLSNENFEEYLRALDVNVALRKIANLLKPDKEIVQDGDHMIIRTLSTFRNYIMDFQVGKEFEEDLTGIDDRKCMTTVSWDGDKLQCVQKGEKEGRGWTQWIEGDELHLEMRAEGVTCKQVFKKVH
Description: Binding affinities of the retinyl ethers for CRBP were determined by sucrose, density-gradient, sedimentation analysis as described before (Sani et al., 1980). Briefly, portions of rat testes cytosol (1 mg protein) were incubated with [^3 H]retinol (50 pmol) in the presence or absence of a 150-fold molar excess of unlabeled retinol or the test retinoids. The preparations after dialysis were analyzed by 5-20% sucrose density gradient sedimentation. For measuring the competitive binding of the unlabeled retinoids, inhibition of [^3 H]retinol binding to CRBP by unlabeled retinol is regarded as 100%. The mean and standard deviation calculated from the relative inhibitions obtained from multiple determinations were used as the relative binding affinities of the various retinyl ethers.
The group of retinyl benzyl ethers has now been evaluated for binding to CRBP. Binding to CRBP, as defined for Table I, at approximately 60% or higher was rated as strong; at 40-60%, as moderate; at 20-40%, as low.
^a Per cent inhibition of binding of tritiated retinol to CRBP by a
150-fold molar excess of the unlabelled test retinoid (Sani et al., 1980,

[3] = system: MNU-induced mammary cancer; assay: Short-term (90-day) assay against MNU-induced mammary cancer in rats (Expts. 2 and 3); assay type: in vivo, rat (female Sprague-Dawley); details: 90 days; for effectiveness in reducing the number of tumors per rat: in feed
Description: (§1) Retinoid diet mixtures were stored at 4° C. […] The animals were palpated for mammary tumors 2×/week. […] Also, five rats/group had complete necropsies performed.
(§2) The 2,5-dimethoxybenzyl (3b) and 4-methoxybenzyl (3e) ethers were tested in the same way in a 90-day study. […] The 2,5-dimethybenzyl (3c) and the 2,3-dimethoxybenzyl (3h) ethers, together with RTMBE for comparison, were likewise assayed according to the same methodology. Prior to the beginning of this study, specimens of the retinoid-diet mixtures were placed under the conditions that were employed during the storage and feeding of RTMBE, 3c, and 3h. The specimens were extracted with butanol, and the extracts were analyzed by HPLC. […] Testing of 3c and 3h was discontinued, but the RTMBE study was continued until the duration of the study was 180 days (Table 6). The results were similar to those of Experiment 1 (Table 3). The averages of the number of tumors per rat were reduced by 32-35%; in addition, the averages of the tumor weights per rat was 56-70% lower than the average tumor burden of the control group.
and was continued until the studies of 3b, 3c, 3e, and 3h were terminated
90 days after administration of MNU. The RTMBE experiment was continued
until 180 days after MNU administration (Table VI).
kilogram of Teklad diet.

[4] = Analysis of feed samples for stability of retinyl ethers; assay type: physicochemical; details: for % recovery of retinyl ether: Vehicle + Retinoid (only); for stability in diet mixtures: conditions of storage and feeding in animal rooms
Description: as §2
^a The values in each column are % recoveries of the retinyl ether from
mixtures of the ether with feed samples and are based on the actual
amounts of the ether that were added.
^b The samples that were analyzed were mixtures of vehicle, retinoid,
and feed (prepared as described by Shealy et al., 1997).
^c Food cups were placed in animal cages within the room that housed
the rats; therefore, temperature (22° C.) and lighting were
identical to those in use during the in vivo tests.

in vivo = assay: in vivo
Description: Toxicological evaluations involving measurement of body weights and observations of clinical signs characteristic of retinoid toxicity were accomplished as previously described (Lin et al., 1996).
RTMBE and two of its analogues, together with RME and RPE, were selected for estimation of their toxicities to mice when administered during 28-29 days by gavage in corn oil (Table 8). Mice were evaluated for changes in body weight and for signs of clinical retinoid toxicity (hypervitaminosis A) including alopecia, scaly skin, and limping. In the first experiment, these retinyl ethers were given at equimicromolar doses at three dose levels. The retinyl benzyl ethers (RTMBE, 3c, and 3e) were then tested at higher doses in a second experiment.

[5] = Toxicity observations in rats receiving retinoids in feed; assay type: in vivo, rat (Sprague-Dawley); details: administered in feed
Description: as §1

[6] = rat, in feed; Shealy et al., 1997; cited from earlier work
[7] = system: carcinogen-induced mammary cancer; details: rats; Thompson et al., 1978 / Shealy et al., 1997; cited from earlier work
[8] = system: MNU-induced mammary cancer; details: 160 days
Description: Briefly, diets were prepared by mixing each retinoid with Wayne meal or Teklad (4%) mash diet. For each kg of diet, the retinoid was dissolved in 12 g ethanol, 19 g trioctanoin, 0.05 mL Tenox 20, and 0.05 mL d,1-alpha tocopherol prior to incorporation into the feed using a Patterson-Kelly blender. Retinoid diet mixtures were stored at 4° C. Portions of each retinoid-diet mixture were analyzed for the added retinoid to ensure homogeneity. Female Sprague-Dawley rats received an i.v. injection of MNU (45 mg/kg body weight) at 50 days of age. Diet supplementation with retinoids was initiated three days after MNU. A group of rats receiving retinyl acetate (1 mmol/kg of diet) served as the positive control. The animals were palpated for mammary tumors 2×/week. At termination of the study, mammary tumors were processed for histological classification. Also, five rats/group had complete necropsies performed. The tissues were examined histologically for pathological lesions as additional toxicological evaluation. Extracts of the liver and mammary gland (5 rats/group) were analyzed by HPLC for retinyl palmitate and/or for the dosed retinoid. Statistical analyses of cancer incidence and latency were determined using logrank analysis, while differences in cancer multiplicity were determined employing the Armitage test.
In this assay, described previously (Grubbs et al., 1995; Shealy el al., 1997), a retinoid dissolved in a solution (vehicle) consisting of ethanol and trioctanoin plus small amounts of Tenox 20 and α-tocopherol was mixed with feed, and the mixture was fed to rats after intravenous injection of MNU.
^a Female Sprague-Dawley rats (10/group) received one i.v. injection of
MNU (45 mg/kg of body weight) at 50 days of age. Diet supplementation with
retinoids was initiated at 52 days of age and was continued until the
study was terminated 160 days after administration of MNU.
^b Treatment with retinoids is stated in millimoles of retinoid per
kilogram of diet (Wayne meal).

[9] = system: MNU-induced mammary tumors; details: with MNU, 1 mmol/kg diet
Description: The methods employed in the preparation of diets, analyses of retinoid-dietspecimens, and dietary treatment with retinoids of MNU-induced mammary carcinogenesis in Sprague-Dawley rats were described previously (Grubbs et al., 1995; Shealy et al., 1997). Briefly, diets were prepared by mixing each retinoid with Wayne meal or Teklad (4%) mash diet. For each kg of diet, the retinoid was dissolved in 12 g ethanol, 19 g trioctanoin, 0.05 mL Tenox 20, and 0.05 mL d,1-alpha tocopherol prior to incorporation into the feed using a Patterson-Kelly blender. Retinoid diet mixtures were stored at 4° C. Portions of each retinoid-diet mixture were analyzed for the added retinoid to ensure homogeneity. Female Sprague-Dawley rats received an i.v. injection of MNU (45 mg/kg body weight) at 50 days of age. Diet supplementation with retinoids was initiated three days after MNU. A group of rats receiving retinyl acetate (1 mmol/kg of diet) served as the positive control. The animals were palpated for mammary tumors 2×/week. At termination of the study, mammary tumors were processed for histological classification. Also, five rats/group had complete necropsies performed. The tissues were examined histologically for pathological lesions as additional toxicological evaluation. Extracts of the liver and mammary gland (5 rats/group) were analyzed by HPLC for retinyl palmitate and/or for the dosed retinoid. Statistical analyses of cancer incidence and latency were determined using logrank analysis, while differences in cancer multiplicity were determined employing the Armitage test.
^b Average number of palpable mammary tumors.
^c Diet supplementation with retinoids was initiated at 52 days of age
and was continued until the study was terminated 180 days after
administration of MNU. Treatment with retinoids is stated in millimoles of
retinoid per kilogram of diet (Wayne meal).
^d Female Sprague-Dawley rats received one i.v. injection of MNU (50
mg/kg of body weight) at 50 days of age.

[10] = After 1 week of 4° C., 10080 min
[11] = After 1 day in food cup (22° C.)
[12] = After 2 days in food cup (22° C.)
[13] = After 3 days in food cup (22° C.)

CC#CCOCC#CC [Compound 1e, 2-butynyl ether]
stability in refluxing ethanol [1]: intramolecular cyclization

CC1=C(/C=C/C(C)=C/C=C/C(C)=C/COCc2cc(C)ccc2C)C(C)(C)CCC1 [Compound 3c, Retinyl 2,5-Dimethylbenzyl Ether]
Percent Inhibition of [3H] Retinol Binding (CRBP Assay) [2]: 65 ± 10%
effectiveness in reducing the number of tumors per rat [3]: not effective
Tumors, % of Control Gp. ([3]; Expt. 3, 0.5 mmol/kg diet): 104%
Tumors, Avg. No. per Rat ([3]; Expt. 3, 0.5 mmol/kg diet): 2.0
Tumors, % of Control Gp. ([3]; Expt. 3, 1 mmol/kg diet): 171%
Tumors, Avg. No. per Rat ([3]; Expt. 3, 1 mmol/kg diet): 3.3
Tumors, % of Control Gp. ([3]; Expt. 3, 2 mmol/kg diet): 109%
Tumors, Avg. No. per Rat ([3]; Expt. 3, 2 mmol/kg diet): 2.1
% recovery of retinyl ether from feed [4, 10]: 96%
% recovery of retinyl ether from feed [4, 11]: 106%
% recovery of retinyl ether from feed [4, 12]: 96%
% recovery of retinyl ether from feed [4, 13]: 102%
% recovery of retinyl ether from feed ([4]; Immediately After Mixing): 103%
% recovery of retinyl ether [4]: 100%
stability in diet mixtures [4]: essentially unchanged
NOAEL (in vivo; mouse, in vivo, po): 431 mg/kg/day
Toxic Dose (in vivo; oral gavage in corn oil, 28-29 days): > 431 mg/kg day
clinical toxicity (alopecia, scaly skin, limping) (in vivo; oral gavage, up to highest dose (RTMBE and RMoBE-4: Expt. 2)): No evidence of clinical toxicity except for scaly skin
toxicity in MNU-mammary cancer studies [5]: not toxic in the mammary carcinogenesis studies

CC1=C(/C=C/C(C)=C/C=C/C(C)=C/COCc2ccccc2)C(C)(C)CCC1 [Compound 3d, Retinyl Benzyl Ether]
binding to CRBP, in words ([2]; 150-fold molar excess): not conducive to CRBP binding; also recorded: does not bind significantly to CRBP
Percent Inhibition of [3H] Retinol Binding (CRBP Assay) [2]: 5 ± 5%

COc1cccc(COC/C=C(C)/C=C/C=C(C)/C=C/C2=C(C)CCCC2(C)C)c1 [Compound 3f, Retinyl 3-Methoxy Benzyl Ether]
binding to CRBP, in words ([2]; 150-fold molar excess): modest, but significant, binding affinity
Percent Inhibition of [3H] Retinol Binding (CRBP Assay) [2]: 20 ± 5%

CC1=C(/C=C/C(C)=C/C=C/C(C)=C/COCc2ccc(C)cc2)C(C)(C)CCC1 [Compound 3g, Retinyl 4-Methylbenzyl Ether]
binding to CRBP, in words ([2]; 150-fold molar excess): not conducive to CRBP binding
Percent Inhibition of [3H] Retinol Binding (CRBP Assay) [2]: 0%

COc1cccc(COC/C=C(C)/C=C/C=C(C)/C=C/C2=C(C)CCCC2(C)C)c1OC [Compound 3h, Retinyl 2,3-Dimethoxybenzyl Ether]
Percent Inhibition of [3H] Retinol Binding (CRBP Assay) [2]: 0%
effectiveness in reducing the number of tumors per rat [3]: not effective
Tumors, % of Control Gp. ([3]; Expt. 3, 0.5 mmol/kg diet): 114%
Tumors, Avg. No. per Rat ([3]; Expt. 3, 0.5 mmol/kg diet): 2.2
Tumors, % of Control Gp. ([3]; Expt. 3, 1 mmol/kg diet): 104%
Tumors, Avg. No. per Rat ([3]; Expt. 3, 1 mmol/kg diet): 2.0
Tumors, % of Control Gp. ([3]; Expt. 3, 2 mmol/kg diet): 145%
Tumors, Avg. No. per Rat ([3]; Expt. 3, 2 mmol/kg diet): 2.8
% recovery of retinyl ether from feed [4, 10]: 99.7%
% recovery of retinyl ether from feed [4, 11]: 95%
% recovery of retinyl ether from feed [4, 12]: 94%
% recovery of retinyl ether from feed [4, 13]: 97.9%
% recovery of retinyl ether from feed ([4]; Immediately After Mixing): 95%
% recovery of retinyl ether [4]: 98.7%
stability in diet mixtures [4]: essentially unchanged

COc1ccc(COC/C=C(C)/C=C/C=C(C)/C=C/C2=C(C)CCCC2(C)C)c(OC)c1OC [Compound 3i, Retinyl 2,3,4-Trimethoxybenzyl Ether]
Percent Inhibition of [3H] Retinol Binding (CRBP Assay) [2]: 5 ± 5%

CC1=C(/C=C/C(C)=C/C=C/C(C)=C/COCc2c(C)cc(C)cc2C)C(C)(C)CCC1 [Compound 3j, Retinyl 2,4,6-Trimethylbenzyl Ether]
Percent Inhibition of [3H] Retinol Binding (CRBP Assay) [2]: 7 ± 6%

CC1=C(/C=C/C(C)=C/C=C/C(C)=C/COCc2ccc(Cl)cc2Cl)C(C)(C)CCC1 [Compound 3k, Retinyl 2,4-Dichlorobenzyl Ether]
Percent Inhibition of [3H] Retinol Binding (CRBP Assay) [2]: 0%

CC1=C(/C=C/C(C)=C/C=C/C(C)=C/COCc2c(Cl)cccc2Cl)C(C)(C)CCC1 [Compound 3l, Retinyl 2,6-Dichlorobenzyl Ether]
Percent Inhibition of [3H] Retinol Binding (CRBP Assay) [2]: 40 ± 5%

CC1=C(/C=C/C(C)=C/C=C/C(C)=C/COC(C)c2ccccc2)C(C)(C)CCC1 (stereo not drawn) [Compound 3m, Retinyl α-Methylbenzyl Ether]
Binding to CRBP, rating ([2]; 150-fold molar excess): strong binding
Percent Inhibition of [3H] Retinol Binding (CRBP Assay) [2]: 60 ± 0%

CC(C)=CCOC/C=C(C)/C=C/C=C(C)/C=C/C1=C(C)CCCC1(C)C [RMBE, retinyl 3-methyl-2-butenyl ether]
accumulation of retinyl palmitate in the liver [6]: did not cause
suppression of MNU-induced mammary cancer [7]: inhibited the development of MNU-induced mammary cancer; also recorded: only modestly active

CC(=O)OC/C=C(C)/C=C/C=C(C)/C=C/C1=C(C)CCCC1(C)C [Retinyl Acetate, retinyl acetate, reference compound]
reduction of the number of tumors per rat ([3]; at 1 mmol/kg): 66%
Tumors, % of Control Gp. ([3]; Expt. 2, 1 mmol/kg diet): 34%
Tumors, Avg. No. per Rat ([3]; Expt. 2, 1 mmol/kg diet): 1.2
Adenocarcinomas, % of Control Group A ([8]; 1 mmol/kg diet): 70%
Adenocarcinomas, Avg. No. Per Rat ([8]; 1 mmol/kg diet): 4.5
reduction of average number of tumors per rat ([8]; 1 mmol/kg feed): 30%
% of Control Gp., Day 90 [9]: 48%
% of Control Gp., Day 180 [9]: 49%
Avg No. Per Rat (palpable mammary tumors), Day 90 [9]: 1.1
Avg No. Per Rat (palpable mammary tumors), Day 180 [9]: 3.1
accumulation of retinyl palmitate in the liver [6]: a toxic effect produced by efficacious amounts
